# Assays:
# Assay in all cases: relative viability (nuclei count vs DMSO), 5 days (fraction); higher = more cells survive
# HCC-44 = system: HCC-44
# Summary of the method: (§1)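 A single step with final 0.05% Triton X-100, 1% formaldehyde and 1 ug/ml Hoechst fixed the cells and stained nuclei 5 days after treatment. Lung cancer cell lines in 1536-well plates had been treated by pin tool the day after seeding with one drug alone or a fixed anchor-drug dose plus five library-drug doses (not always all listed) in √10 steps, and nuclei were counted on 4× images. Relative viability is the ratio of nuclei in treated wells to nuclei in vehicle wells, taken as the median of duplicate plates.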
# NCI-H2023 = system: NCI-H2023
# Summary of the method: as §1
# LC-2-ad = system: LC-2-ad
# Summary of the method: as §1
# UMC-11 = system: UMC-11
# Summary of the method: as §1
# ABC-1 = system: ABC-1
# Summary of the method: as §1
# PC-14 = system: PC-14
# Summary of the method: as §1
# SW 1573 = system: SW 1573
# Summary of the method: as §1
# COR-L23 = system: COR-L23
# Summary of the method: as §1
# NCI-H2085 = system: NCI-H2085
# Summary of the method: as §1
# NCI-H358 = system: NCI-H358
# Summary of the method: as §1
# EPLC-272H = system: EPLC-272H
# Summary of the method: as §1
# NCI-H1993 = system: NCI-H1993
# Summary of the method: as §1
# HOP-62 = system: HOP-62
# Summary of the method: as §1
# NCI-H1355 = system: NCI-H1355
# Summary of the method: as §1
# NCI-H838 = system: NCI-H838
# Summary of the method: as §1
# LU99A = system: LU99A
# Summary of the method: as §1
# NCI-H650 = system: NCI-H650
# Summary of the method: as §1
# HCC-15 = system: HCC-15
# Summary of the method: as §1
# NCI-H1915 = system: NCI-H1915
# Summary of the method: as §1
# HARA = system: HARA
# Summary of the method: as §1
# NCI-H2347 = system: NCI-H2347
# Summary of the method: as §1
# NCI-H1651 = system: NCI-H1651
# Summary of the method: as §1
# NCI-H2126 = system: NCI-H2126
# Summary of the method: as §1
smiles,measurement,setting,value
CCN(CC)CCCCNc1ncc2cc(-c3cc(OC)cc(OC)c3)c(NC(=O)NC(C)(C)C)nc2n1 + CC(=O)c1c(C)c2cnc(Nc3ccc(N4CCNCC4)cn3)nc2n(C2CCCC2)c1=O [Palbociclib] (partner 0.5 µM),relative viability,HCC-44; first compound 0.01 µM,1.02
same,relative viability,HCC-44; first compound 0.03162 µM,1.07
same,relative viability,HCC-44; first compound 0.1 µM,0.987
same,relative viability,HCC-44; first compound 0.3162 µM,1.04
same,relative viability,HCC-44; first compound 1 µM,1
same,relative viability,NCI-H2023; first compound 0.01 µM,0.317
same,relative viability,NCI-H2023; first compound 0.03162 µM,0.32
same,relative viability,NCI-H2023; first compound 0.1 µM,0.348
same,relative viability,NCI-H2023; first compound 0.3162 µM,0.347
same,relative viability,NCI-H2023; first compound 1 µM,0.291
same,relative viability,LC-2-ad; first compound 0.01 µM,0.503
same,relative viability,LC-2-ad; first compound 0.03162 µM,0.486
same,relative viability,LC-2-ad; first compound 0.1 µM,0.491
same,relative viability,LC-2-ad; first compound 0.3162 µM,0.589
same,relative viability,LC-2-ad; first compound 1 µM,0.473
same,relative viability,UMC-11; first compound 0.01 µM,0.338
same,relative viability,UMC-11; first compound 0.03162 µM,0.305
same,relative viability,UMC-11; first compound 0.1 µM,0.351
same,relative viability,UMC-11; first compound 0.3162 µM,0.313
same,relative viability,UMC-11; first compound 1 µM,0.343
same,relative viability,ABC-1; first compound 0.03162 µM,0.968
same,relative viability,ABC-1; first compound 0.1 µM,0.724
same,relative viability,ABC-1; first compound 0.3162 µM,0.832
same,relative viability,ABC-1; first compound 1 µM,0.574
same,relative viability,PC-14; first compound 0.01 µM,0.599
same,relative viability,PC-14; first compound 0.03162 µM,0.467
same,relative viability,PC-14; first compound 0.1 µM,0.654
same,relative viability,PC-14; first compound 0.3162 µM,0.564
same,relative viability,PC-14; first compound 1 µM,0.56
same,relative viability,SW 1573; first compound 0.01 µM,0.377
same,relative viability,SW 1573; first compound 0.03162 µM,0.407
same,relative viability,SW 1573; first compound 0.1 µM,0.519
same,relative viability,SW 1573; first compound 0.3162 µM,0.398
same,relative viability,SW 1573; first compound 1 µM,0.331
same,relative viability,COR-L23; first compound 0.01 µM,0.291
same,relative viability,COR-L23; first compound 0.03162 µM,0.343
same,relative viability,COR-L23; first compound 0.1 µM,0.341
same,relative viability,COR-L23; first compound 0.3162 µM,0.312
same,relative viability,COR-L23; first compound 1 µM,0.248
same,relative viability,NCI-H2085; first compound 0.01 µM,0.466
same,relative viability,NCI-H2085; first compound 0.03162 µM,0.45
same,relative viability,NCI-H2085; first compound 0.1 µM,0.443
same,relative viability,NCI-H2085; first compound 0.3162 µM,0.468
same,relative viability,NCI-H2085; first compound 1 µM,0.457
same,relative viability,NCI-H358; first compound 0.01 µM,0.146
same,relative viability,NCI-H358; first compound 0.03162 µM,0.123
same,relative viability,NCI-H358; first compound 0.1 µM,0.159
same,relative viability,NCI-H358; first compound 0.3162 µM,0.139
same,relative viability,NCI-H358; first compound 1 µM,0.136
same,relative viability,EPLC-272H; first compound 0.01 µM,0.286
same,relative viability,EPLC-272H; first compound 0.1 µM,0.33
same,relative viability,EPLC-272H; first compound 0.3162 µM,0.284
same,relative viability,EPLC-272H; first compound 1 µM,0.339
same,relative viability,NCI-H1993; first compound 0.01 µM,0.368
same,relative viability,NCI-H1993; first compound 0.03162 µM,0.763
same,relative viability,NCI-H1993; first compound 0.1 µM,0.791
same,relative viability,NCI-H1993; first compound 0.3162 µM,0.661
same,relative viability,NCI-H1993; first compound 1 µM,0.738
same,relative viability,HOP-62; first compound 0.01 µM,0.463
same,relative viability,HOP-62; first compound 0.03162 µM,0.455
same,relative viability,HOP-62; first compound 0.1 µM,0.481
same,relative viability,HOP-62; first compound 0.3162 µM,0.425
same,relative viability,HOP-62; first compound 1 µM,0.45
same,relative viability,NCI-H1355; first compound 0.01 µM,0.378
same,relative viability,NCI-H1355; first compound 0.03162 µM,0.402
same,relative viability,NCI-H1355; first compound 0.1 µM,0.465
same,relative viability,NCI-H1355; first compound 0.3162 µM,0.376
same,relative viability,NCI-H1355; first compound 1 µM,0.364
same,relative viability,NCI-H838; first compound 0.01 µM,0.197
same,relative viability,NCI-H838; first compound 0.03162 µM,0.223
same,relative viability,NCI-H838; first compound 0.1 µM,0.204
same,relative viability,NCI-H838; first compound 0.3162 µM,0.213
same,relative viability,NCI-H838; first compound 1 µM,0.182
same,relative viability,LU99A; first compound 0.01 µM,0.364
same,relative viability,LU99A; first compound 0.03162 µM,0.393
same,relative viability,LU99A; first compound 0.1 µM,0.457
same,relative viability,LU99A; first compound 0.3162 µM,0.446
same,relative viability,LU99A; first compound 1 µM,0.338
same,relative viability,NCI-H650; first compound 0.01 µM,0.282
same,relative viability,NCI-H650; first compound 0.03162 µM,0.369
same,relative viability,NCI-H650; first compound 0.1 µM,0.331
same,relative viability,NCI-H650; first compound 0.3162 µM,0.308
same,relative viability,NCI-H650; first compound 1 µM,0.32
same,relative viability,HCC-15; first compound 0.01 µM,0.82
same,relative viability,HCC-15; first compound 0.03162 µM,0.826
same,relative viability,HCC-15; first compound 0.1 µM,0.826
same,relative viability,HCC-15; first compound 0.3162 µM,0.797
same,relative viability,HCC-15; first compound 1 µM,0.729
same,relative viability,NCI-H1915; first compound 0.01 µM,0.655
same,relative viability,NCI-H1915; first compound 0.03162 µM,0.528
same,relative viability,NCI-H1915; first compound 0.1 µM,0.557
same,relative viability,NCI-H1915; first compound 0.3162 µM,0.546
same,relative viability,NCI-H1915; first compound 1 µM,0.496
same,relative viability,HARA; first compound 0.01 µM,0.228
same,relative viability,HARA; first compound 0.03162 µM,0.243
same,relative viability,HARA; first compound 0.1 µM,0.306
same,relative viability,HARA; first compound 0.3162 µM,0.223
same,relative viability,HARA; first compound 1 µM,0.269
same,relative viability,NCI-H2347; first compound 0.01 µM,0.551
same,relative viability,NCI-H2347; first compound 0.03162 µM,0.452
same,relative viability,NCI-H2347; first compound 0.1 µM,0.415
same,relative viability,NCI-H2347; first compound 0.3162 µM,0.484
same,relative viability,NCI-H2347; first compound 1 µM,0.387
same,relative viability,NCI-H1651; first compound 0.01 µM,0.539
same,relative viability,NCI-H1651; first compound 0.03162 µM,0.511
same,relative viability,NCI-H1651; first compound 0.1 µM,0.547
same,relative viability,NCI-H1651; first compound 0.3162 µM,0.541
same,relative viability,NCI-H1651; first compound 1 µM,0.47
same,relative viability,NCI-H2126; first compound 0.01 µM,0.353
same,relative viability,NCI-H2126; first compound 0.03162 µM,0.37
same,relative viability,NCI-H2126; first compound 0.1 µM,0.399
same,relative viability,NCI-H2126; first compound 0.3162 µM,0.345
same,relative viability,NCI-H2126; first compound 1 µM,0.355

# From the supplement of paper PMC10307832
